# Test results as given in patent US20120035050A1, “Synergistic Combinations Of Active Ingredients” (BAYER CROPSCIENCE AG, priority 2009, published 2012).
# Where two headings read alike, the source gives them in different places.
# Assays:
# Type in all cases: in vivo
# [1] = test system: green peach aphid (Myzus persicae); assay: Myzus persicae test; settings: 24 h, read-out: Kill in % after 1^d
# Protocol: (§1) • Solvents: 78 parts by weight of acetone 1.5 parts by weight of dimethylformamide • Emulsifier: 0.5 part by weight of alkylaryl polyglycol ether
# (§2) To produce a suitable preparation of active compound, 1 part by weight of active compound is mixed with the stated amount of solvent and emulsifier, and the concentrate is diluted with emulsifier-containing water to the desired concentration.
# Cabbage leaves (Brassica oleracea) which are heavily infested by the green peach aphid (Myzus persicae) are treated by spraying with the active compound preparation of the desired concentration.
# After the desired period of time, the kill in % is determined 100% means that all of the aphids have been killed; 0% means that none of the aphids have been killed. The kill rates determined are entered into Colby's formula (see above).
# [2] = test system: larvae of the mustard beetle (Phaedon cochleariae); assay: Phaedon cochleariae larvae test; settings: for Kill in % after 2^d: sprayed cabbage leaves
# [3] = test system: greenhouse red spider mite (Tetranychus urticae); assay: Tetranychus urticae test (OP-resistant/spray treatment)
# Protocol: as §1, §2
# Discs of bean leaves (Phaseolus vulgaris) which are infested by all stages of the greenhouse red spider mite (Tetranychus urticae) are sprayed with an active compound preparation of the desired concentration.
# After the desired period of time, the effect in % is determined. 100% means that all of the spider mites have been killed; 0% means that none of the spider mites have been killed.
# [4] = test system: larvae of the armyworm (Spodoptera frugiperda); assay: Spodoptera frugiperda test; settings: sprayed cabbage leaves
# [5] = 200 g/ha, spray on infested cabbage leaves, after 1 d
# [6] = Phaedon cochleariae, 144 h, single active compound, 200 g/ha, 6 d, read-out: Kill in % after 6 d
# [7] = Tetranychus urticae, 144 h, single active compound, 100 g/ha, 6 d, read-out: Kill in % after 6 d
# [8] = Phaedon cochleariae, 144 h, single active compound, 20 g/ha, 6 d, read-out: Kill in % after 6 d
# [9] = Phaedon cochleariae, 144 h, single active compound, 100 g/ha, 6 d, read-out: Kill in % after 6 d
# [10] = Tetranychus urticae, 144 h, read-out: Kill in % after 6 d
# [11] = single active compound, 100 g/ha
# [12] = single active compound, 500 g/ha, 6 d
# [13] = single active compound, 200 g/ha
Structure (SMILES),"pest or weed control at 200 g/ha [2, 6] [%]",pest or weed control at 200 g/ha ([1]; in Brassica oleracea) [%],"pest or weed control at 200 g/ha [3, 10] [%]",further results
"Cc1nn(C)c(F)c1C(=O)Nc1ccccc1C(C)CC(C)C (stereo not drawn) [N-[2-(1,3-dimethylbutyl)phenyl]-5-fluoro-1,3-dimethyl-1H-pyrazole-4-carboxamide]",0,,,"pest or weed control at 200 g/ha [1, 5]: 0%"
CO/C=C(/C(=O)OC)c1ccccc1Oc1cc(Oc2ccccc2C#N)ncn1 [azoxystrobin],,,,"pest or weed control at 500 g/ha ([2]; Phaedon cochleariae, 144 h, single active compound, 500 g/ha, 6 d, read-out: Kill in % after 6 d): 0%"
"O=C1C=C(N(CCF)Cc2ccc(Cl)nc2)CO1 [compound (I-4), 4-{[(6-chloropyrid-3-yl)methyl](2-fluoroethyl)amino}furan-2(5H)-one]",,,,"pest or weed control at 0.8 g/ha ([1]; 0.8 g/ha, spray on infested cabbage leaves, after 1 d): 50%; pest or weed control at 4 g/ha ([3]; Tetranychus urticae, 144 h, single active compound, 4 g/ha, 6 d, read-out: Kill in % after 6 d): 50%; pest or weed control at 100 g/ha [3, 7]: 80%; Kill in % after 2^d ([2]; 20 g/ha): 0%; pest or weed control at 20 g/ha [2, 8]: 0%; pest or weed control at 100 g/ha [2, 9]: 17%"
"O=C1C=C(N(Cc2ccc(Cl)nc2)CC(F)F)CO1 [compound (I-5), 4-{[(6-chloropyrid-3-yl)methyl](2,2-difluoroethyl)amino}furan-2(5H)-one]",,,,"pest or weed control at 0.8 g/ha ([1]; in Brassica oleracea): 50%; pest or weed control at 100 g/ha [3, 10]: 0%; Kill in % after 2 d [3, 11]: 20%; Kill in % after 2^d ([2]; 20 g/ha): 0%; pest or weed control at 20 g/ha [2, 8]: 0%; pest or weed control at 100 g/ha [2, 9]: 50%"
"CN(Cc1cnc(Cl)c(F)c1)C1=CC(=O)OC1 [compound (I-6), 4-{[(6-chloro-5-fluorpyrid-3-yl)methyl](methyl)amino}furan-2(5H)-one]",,,,"Kill in % after 6^d ([4]; 100 g/ha): 0%; pest or weed control at 100 g/ha [3, 7]: 0%; Kill in % after 2 d [3, 11]: 0%; Kill in % after 2^d ([2]; 100 g/ha): 33%; pest or weed control at 20 g/ha [2, 8]: 0%; pest or weed control at 100 g/ha [2, 9]: 67%"
CSC1=N[C@@](C)(c2ccccc2)C(=O)N1Nc1ccccc1 [fenamidone],,0,,Kill in % after 2^d ([2]; 200 g/ha): 0%
N#Cc1c[nH]cc1-c1cccc2c1OC(F)(F)O2 [fludioxonil],17,0,0,
O=C(NCc1ncc(C(F)(F)F)cc1Cl)c1c(Cl)cccc1Cl [fluopicolide],,,,"Kill in % after 6 d [3, 12]: 0%; Kill in % after 6 d [2, 12]: 0%"
"O=C(NCCc1ncc(C(F)(F)F)cc1Cl)c1ccccc1C(F)(F)F [fluopyram, N-[2-[3-chloro-5-(trifluoromethyl)-2-pyridinyl]ethyl]-2-(trifluoromethyl)benzamide]",0,0,0,
CC(C)NC(=O)N1CC(=O)N(c2cc(Cl)cc(Cl)c2)C1=O [iprodione],0,0,50,
Cc1ccc(C(C)NC(=O)[C@@H](NC(=O)OC(C)C)C(C)C)cc1 (stereo partly drawn) [iprovalicarb],0,,0,
N#Cc1ccccc1NC(=O)c1snc(Cl)c1Cl [isotianil],0,0,0,
COCC(=O)N(c1c(C)cccc1C)C(C)C(=O)OC (stereo not drawn) [metalaxyl],0,0,0,
CCCOC(=O)NCCCN(C)C [propamocarb],,,,"pest or weed control at 200 g/ha [1, 5]: 0%; pest or weed control at 200 g/ha ([3]; Tetranychus urticae, 144 h, single active compound, 200 g/ha, 6 d, read-out: Kill in % after 6 d): 0%; Kill in % after 2 d [3, 13]: 0%"
OC(Cc1ccccc1Cl)(Cn1ncnc1S)C1(Cl)CC1 (stereo not drawn) [prothioconazole],,0,0,Kill in % after 2^d ([2]; 200 g/ha): 0%
CC(C)(C)C(O)(CCc1ccc(Cl)cc1)Cn1cncn1 (stereo not drawn) [tebuconazole],0,0,70,
Cc1ccc(N(SC(F)(Cl)Cl)S(=O)(=O)N(C)C)cc1 [tolylfluanid],17,0,,Kill in % after 6^d ([4]; 200 g/ha): 0%
CC(C)(C)C(O)C(Oc1ccc(Cl)cc1)n1cncn1 (stereo not drawn) [triadimenol],0,0,0,"Kill in % after 2 d [3, 13]: 0%"
CO/N=C(/C(=O)OC)c1ccccc1CO/N=C(\C)c1cccc(C(F)(F)F)c1 [trifloxystrobin],33,,,Kill in % after 2^d ([2]; 200 g/ha): 0%
